The text below walks through data of EP4140481A1, “PROTEIN-OLIGOMER BINDING AGENTS AND THERAPEUTIC USES THEREOF” (Galyan Bio, Inc., priority 2021, dated 2023).

The structures appear in SMILES notation.

For data set [1], the system named is C. elegans. The experiment in a line: C. elegans growth and development (toxicity) assay. In kind it is in vivo. The following applies: doses 32nM to 500µM, hatching to first day of adulthood. How it is done:
Delivery strategy: The indicated compound dosage is based on the total volume of the plates with the assumption that the water-soluble compound diffuses throughout the agar. The compound is dissolved in a working solution and then combined directly with the food bacteria before seeding on agar plates. The food spots are dried slowly, allowing the compound to diffuse into the food bacteria and the agar for 24 hours.
Growth and development assay results: High-resolution imaging and automated detection were used to precisely measure the growth rate of animals from hatching to the first day of adulthood (total of 4 days). The C. elegans growth and development assay is highly sensitive and widely used in toxicology studies. Performing this test over a range of doses helps to identify a set of doses that have a physiological impact and exclude dose ranges that are likely too toxic to benefit lifespan.

For data set [2], the system named is C. elegans. The following applies: in vivo. How it is done: Background: First, acute toxicity assays were performed to test the toxicity of the compounds in adult worms by simulating the actual conditions of the lifespan assay. This accomplished two things. First, in the early stages it determines doses that are acutely toxic to adult worms. Second, over time the worms are scored to rule out doses that despite low initial toxicity, will likely have a negative impact on lifespan. Worms are plated on the exact media and sealed plates that will be used in the lifespan assay and then incubated at 25°C to provide a pilot lifespan that helps catch any other dosing and delivery pitfalls early. Adult worms were monitored in the days immediately following exposure for lethality or any other obvious defects.
Results: Worms were treated with either vehicle control or Compound 4 at concentrations of 50nM, 500nM, 5µM, 50µM, and 500µM. […] The exception is that the worms are incubated at 25°C instead of 20°C to accelerate the aging process. […] Worms were then scored periodically for early deaths. Worms treated with 5 µM Compound 4 or higher concentrations began to decline faster than vehicle control-treated worms. As these doses would be unlikely to increase lifespan in an actual lifespan assay, this placed the upper boundary of effective concentrations between 500 nM and 5 µM (Figure 52 (B)). […]

For another data set, the system named is zebrafish larvae. The experiment in a line: Motility Zebrafish Model (MPP+ exposure, photomotor assay and sleep).
The target in the next data set is T1, mHTT (Homo sapiens, UniProt P42858).
T1 construct: host or cells: ST HDH Q111/111 mouse striatal cell line (knock-in locus)
T1 sequence (P42858 with tags, fused parts or gaps with the stated changes): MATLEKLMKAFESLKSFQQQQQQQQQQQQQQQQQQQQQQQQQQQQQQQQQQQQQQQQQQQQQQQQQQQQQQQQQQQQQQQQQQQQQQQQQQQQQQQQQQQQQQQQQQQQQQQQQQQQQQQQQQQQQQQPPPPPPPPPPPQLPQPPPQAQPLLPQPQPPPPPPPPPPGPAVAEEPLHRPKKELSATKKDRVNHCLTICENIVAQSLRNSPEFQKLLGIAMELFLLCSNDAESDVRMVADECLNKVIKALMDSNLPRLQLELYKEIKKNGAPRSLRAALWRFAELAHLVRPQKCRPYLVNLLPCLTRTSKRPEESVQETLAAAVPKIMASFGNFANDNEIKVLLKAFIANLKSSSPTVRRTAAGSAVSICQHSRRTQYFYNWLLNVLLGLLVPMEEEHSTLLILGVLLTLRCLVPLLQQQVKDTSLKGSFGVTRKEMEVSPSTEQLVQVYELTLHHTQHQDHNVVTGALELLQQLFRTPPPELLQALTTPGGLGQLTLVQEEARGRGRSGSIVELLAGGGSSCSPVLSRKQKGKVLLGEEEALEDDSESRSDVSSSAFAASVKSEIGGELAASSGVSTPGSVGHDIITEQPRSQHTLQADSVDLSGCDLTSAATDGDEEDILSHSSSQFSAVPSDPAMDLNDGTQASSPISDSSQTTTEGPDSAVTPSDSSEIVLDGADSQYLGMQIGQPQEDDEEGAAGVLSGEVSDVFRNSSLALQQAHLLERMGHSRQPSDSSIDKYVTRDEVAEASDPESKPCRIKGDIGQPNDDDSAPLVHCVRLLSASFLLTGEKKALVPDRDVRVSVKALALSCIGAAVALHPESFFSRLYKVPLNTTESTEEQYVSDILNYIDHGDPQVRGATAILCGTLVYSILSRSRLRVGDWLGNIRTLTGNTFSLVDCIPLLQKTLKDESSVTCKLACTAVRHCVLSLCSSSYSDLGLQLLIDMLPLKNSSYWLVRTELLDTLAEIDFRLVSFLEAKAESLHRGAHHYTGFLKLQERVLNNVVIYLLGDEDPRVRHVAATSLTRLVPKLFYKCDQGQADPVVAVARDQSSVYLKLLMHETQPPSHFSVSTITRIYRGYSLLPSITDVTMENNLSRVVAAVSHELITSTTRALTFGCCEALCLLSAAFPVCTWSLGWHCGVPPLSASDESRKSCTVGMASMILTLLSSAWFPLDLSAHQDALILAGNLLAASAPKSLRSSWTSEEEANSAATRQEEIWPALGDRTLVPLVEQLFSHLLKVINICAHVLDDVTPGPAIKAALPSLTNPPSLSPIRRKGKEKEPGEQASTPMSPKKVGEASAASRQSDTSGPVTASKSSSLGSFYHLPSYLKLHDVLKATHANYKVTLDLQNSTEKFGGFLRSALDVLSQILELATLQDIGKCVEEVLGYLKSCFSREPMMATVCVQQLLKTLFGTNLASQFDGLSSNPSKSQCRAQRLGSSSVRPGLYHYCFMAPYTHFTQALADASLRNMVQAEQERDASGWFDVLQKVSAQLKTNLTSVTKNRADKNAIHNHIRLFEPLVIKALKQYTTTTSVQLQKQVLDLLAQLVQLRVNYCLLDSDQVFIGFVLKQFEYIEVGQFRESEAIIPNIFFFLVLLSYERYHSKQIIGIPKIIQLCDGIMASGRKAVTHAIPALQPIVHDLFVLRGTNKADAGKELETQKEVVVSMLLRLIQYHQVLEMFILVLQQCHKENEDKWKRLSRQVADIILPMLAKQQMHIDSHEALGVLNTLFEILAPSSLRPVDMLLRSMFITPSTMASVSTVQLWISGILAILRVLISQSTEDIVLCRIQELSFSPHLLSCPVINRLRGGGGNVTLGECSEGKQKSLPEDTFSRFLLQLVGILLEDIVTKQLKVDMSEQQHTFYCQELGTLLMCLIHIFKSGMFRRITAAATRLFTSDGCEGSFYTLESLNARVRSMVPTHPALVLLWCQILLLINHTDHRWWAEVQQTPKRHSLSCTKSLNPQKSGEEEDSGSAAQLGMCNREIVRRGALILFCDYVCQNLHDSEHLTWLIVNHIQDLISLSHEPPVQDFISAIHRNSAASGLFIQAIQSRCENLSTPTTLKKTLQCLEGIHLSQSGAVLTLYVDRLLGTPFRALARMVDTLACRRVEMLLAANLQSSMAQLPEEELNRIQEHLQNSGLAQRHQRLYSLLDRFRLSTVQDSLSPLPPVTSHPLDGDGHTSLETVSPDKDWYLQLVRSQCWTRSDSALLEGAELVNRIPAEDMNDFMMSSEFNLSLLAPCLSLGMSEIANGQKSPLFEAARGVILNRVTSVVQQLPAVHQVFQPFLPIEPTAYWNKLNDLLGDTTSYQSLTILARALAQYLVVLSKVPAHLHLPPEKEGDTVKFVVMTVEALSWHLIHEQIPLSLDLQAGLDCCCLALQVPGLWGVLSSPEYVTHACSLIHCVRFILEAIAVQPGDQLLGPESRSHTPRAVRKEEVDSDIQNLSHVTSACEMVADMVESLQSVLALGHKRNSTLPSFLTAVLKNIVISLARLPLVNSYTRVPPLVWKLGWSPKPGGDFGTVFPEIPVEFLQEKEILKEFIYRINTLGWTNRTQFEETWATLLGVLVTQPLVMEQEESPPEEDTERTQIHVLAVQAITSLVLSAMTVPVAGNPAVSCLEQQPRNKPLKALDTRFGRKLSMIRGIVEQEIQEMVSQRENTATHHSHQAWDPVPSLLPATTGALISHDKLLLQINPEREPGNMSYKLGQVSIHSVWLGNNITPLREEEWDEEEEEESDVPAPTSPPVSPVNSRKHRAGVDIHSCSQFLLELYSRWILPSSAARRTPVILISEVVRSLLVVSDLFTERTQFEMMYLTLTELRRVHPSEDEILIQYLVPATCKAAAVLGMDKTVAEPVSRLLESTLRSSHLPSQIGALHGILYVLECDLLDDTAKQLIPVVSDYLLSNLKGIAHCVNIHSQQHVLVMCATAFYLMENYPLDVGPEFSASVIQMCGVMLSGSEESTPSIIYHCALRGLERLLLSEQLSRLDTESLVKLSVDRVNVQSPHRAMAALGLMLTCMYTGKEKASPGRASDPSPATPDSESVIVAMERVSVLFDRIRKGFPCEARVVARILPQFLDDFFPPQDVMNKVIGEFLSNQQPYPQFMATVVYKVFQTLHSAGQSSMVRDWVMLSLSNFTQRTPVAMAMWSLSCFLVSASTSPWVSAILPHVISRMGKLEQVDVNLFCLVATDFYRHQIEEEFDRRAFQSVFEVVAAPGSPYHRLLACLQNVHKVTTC
The following applies: reported effects in cultured cells, quoted for C. elegans dose selection; cited from earlier work.

Data set [3] relates to STHdh 111/111 striatal cells. Nature of the data set: Cell viability after heat shock (CellTiter Glo). The following applies: heat shocked STHdh 111/111 versus STHdh 7/7 control cells. On the technique in general: ATP-based viability assays read luminescence as a measure of living cells.
Experimental: Cell culture - ST HDH Q111/111 (CH00095, Coriell Institute) striatal derived cell line were grown at 33°C in DMEM (Sigma-Aldrich), supplemented with 10% fetal bovine serum (FBS), 1% Penicillin-Streptomycin (ThermoFisher Scientific), and 0.4 mg/ml G418 (Geneticin; Invitrogen). ST HDH Q111/111 are mouse striatal cells with polyQ length of 111.
Pre-Treatment of striatal cell line - First the medium was removed and new DMEM (DMEM, high glucose, HEPES, no phenol red) medium, supplemented with 10% fetal bovine serum (FBS), 1% Penicillin-Streptomycin, containing 10 µM compound was added. The cells were incubated at 33 °C for 24 hours.
Heat shock - Cells were heat shocked for 3 hours at 41 °C.
Treatment - Medium was removed and new DMEM (DMEM, high glucose, HEPES, no phenol red) medium, supplemented with 1% fetal bovine serum (FBS), 1% Penicillin-Streptomycin, containing 10 µM compound was added. The cells were incubated at 33 °C for 48 hours.
Cell Viability - Cell viability was measured according to manufacturer recommendations with CellTiter Glo (Promega).
A short description of the next data set: Oral bioavailability. The following applies: mouse, in vivo, mice.
The test system of another data set is LC3. Nature of the data set: Autophagic flux (LC3 staining). Type of data set: cell-based, mouse. The protocol: Staining - Cells were permeabilized with 0.3% Triton X-100 in 4 °C PBS (pH 7.4 from ThermoFisher) for 10 minutes. Then the cells were washed two times with 4 °C PBS. Subsequently, cells are blocked with 3% NGS (normal goat serum from Thermo Fisher) in 4 ° C PBS for 1 hour. Cells were incubated with primary antibodies in blocking buffer (PBS, 3% NGS, 0.02% NaN3) over night at 4 °C. Primary antibodies were mouse antipolyglutamine monoclonal antibody 3B5H10 (Sigma-Aldrich) at 1:250 dilution and Guinea Pig anti-MAP2 polyclonal antibody (Synaptic Systems) at 1:500 dilution. […]
Fluorescence Imaging - Imaging sessions were performed on a confocal microscope system (Carl Zeiss Microscopy) equipped with a dual spinning disk unit (Yokogawa). […] The fluorescence images obtained of the immunofluorescence labelled tissue sections were quantified with the help of the "Image Processing and Analysis in Java" or short ImageJ software distributed under the GNU General Public License by the NIH (Rueden, C.T. et al., BMC Bioinformatics. 2017 Nov 29;18(1):529), i.e. the edition used was the Fiji distribution (Schindelin, J. et al., Nature methods. 2012 Jun 28;9(7):676-82). […]
Autophagic flux was calculated as the area stained with LC3 antibody per cell in STHdh 111/111 with autophagy inhibitor NH4CI minus area stained with LC3 antibody per cell in STHdh 111/111 without the autophagy inhibitor NH4CI.

Experimental for zebrafish larvae: Six groups were included in each experiment. Immediately after spawning, 40 embryos per group were allocated to a 24-well plate and system water (solvent) was added to all wells. […] MPP+ was prepared immediately prior to incubation and solutions were changed daily. At 120 hpf, drug treatment and MPP+ exposure was ceased and a 3X wash was performed with system water. Larvae were then relocated to 96-well plates for behavioral recording and placed in a separate recording room for 24-hour acclimation. Prior to behavioral recording, wells were fully replenished system water.
Naive group was exposed to solvent only. Vehicle group was exposed to solvent and vehicle corresponding to the vehicle of 20 µM drug solution (0.02% DMSO). MPP+ positive control was exposed to solvent and 500 µM MPP+.
Behavioral data was recorded from 1 p.m. on 6 dpf until shortly after wakening on 7 dpf. The recording consisted of a photomotor assay in which lights switch off and on in 30-minute intervals between 1 p.m. and 6 p.m., producing a consistent photomotor response. […] Upon lights being turned on again, the larvae cease movement followed by a return to baseline. This cycle is repeated five times. Following the last lights-off phase, constant illumination is presented until lights turn off at 10 p.m. for the night. Lights turn on again at 8 a.m. the following day.
Average movement frequency was measured during 30-minute lights-on phases of photomotor assay.
Distance moved (mm) was defined as the average distance moved during 30-minute lights-on phases of photomotor assay.
All data are presented as mean ± standard error of the mean (sem). For analysis of differences between groups, a Kruskal-Wallis one-way ANOVA with Dunn's multiple comparison post hoc test was performed. P < 0.05 was considered statistically significant.

On to `CCc1c(C)[nH]c2ccc(C(=O)NCCN(CC)CC)cc12` [Compound 4, N-(2-(diethylamino)ethyl)-3-ethyl-2-methyl-1H-indole-5-carboxamide], for which, in the data set on C. elegans [1], the “highest concentration at which no adverse effects were detected” value is on record as 4 µM. For the same compound, the “concentration at which worms began to decline faster than vehicle control-treated worms” value in the data set on C. elegans [2] is reported as ≥ 5 µM. For the same compound, the results for the movement frequency in the data set on zebrafish larvae (1 µM Compound 4 with 500 µM MPP+ (naïve 40.8)) and in the data set on zebrafish larvae (drug treatment groups compared to MPP+) were 21.0 movement bouts in 30 minutes and “no significant difference”, respectively. Moreover, in the data set with zebrafish larvae (1, 10 and 20 µM co-incubated with 500 µM MPP+, compared to MPP+), the distance moved entry is reported as “no significant difference”. Moreover, in the data set on zebrafish larvae (co-incubation with MPP+, between groups), the “sleep parameters (sleep fragmentation, sleep ratio, velocity, wake bout duration, sleep bout duration)” value is recorded as “No statistically significant difference”. Moreover, the “overall movement during assessment of neuroprotection” value in the data set with zebrafish larvae (concentrations ~10 µM and ~1 µM) is listed as “subtle increase in overall movement”. Besides, the EC50 at mHTT was 160 nM.

With `Cc1[nH]c2ccc(C(=O)NCCN(C(C)C)C(C)C)cc2c1C` [Compound 22], the “cell viability at 24 hours after treatment” value in data set [3] is listed as “almost equivalent to the cell viability of STHdh 7/7 control cells”. The bioavailability in the data set “Oral bioavailability” was found to be 10%. In the data set with LC3 (STHdh 111/111, LC3 area with NH4Cl minus without NH4Cl), the autophagic flux entry is given as “positive autophagic flux”. In addition, the LC3 stained area entry in the data set on LC3 (STHdh 111/111 neurons versus untreated, p < 0.001) is reported as “decreased”.

The term EC50 denotes the concentration needed to bring the measured effect to its halfway point. A word on the bioavailability: it is the share of a dose that reaches the circulation, judged against a reference dose that is usually intravenous.
